# In patent US20250388568A1, “NLRP3 INHIBITORS” (Kodiak Sciences Inc., priority 2022, published 2025):
# Experiments:
# [1] = test system: IL-1β release in THP-1-ASC-GFP cells after NLRP3 activation; assay: IC50 determination of IL-1β release inhibition in THP-1-ASC-GFP cells; assay type: cell-based; conditions: THP1-ASC-GFP; THP-1-ASC-GFP cells, LPS priming 4 h, nigericin; average of at least three experiments; read-out: IL-1β IC50 (nM) THP1 cells
# In short: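 THP-1-ASC-GFP cells were primed with 1 μg/mL LPS for 4 h, pretreated with compound for 30 min, then stimulated with nigericin plus compound for 1 h. Secreted IL-1β in supernatants was quantified by MSD electrochemiluminescence immunoassay. IC50 values were calculated from the measured IL-1β concentrations.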
# [2] = test system: IL-1β release in U937 cells after NLRP3 activation; assay: IC50 determination of IL-1β release inhibition in U937 cells; assay type: cell-based; conditions: Homo sapiens, U-937; PMA-differentiated U937 cells, LPS priming 5 h, nigericin; average of at least three experiments; read-out: IL-1β IC50 (nM) U937 cells
# In short: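 PMA-differentiated U937 cells (90 h) were primed 5 h with 1 μg/mL LPS, pre-incubated 30 min with compound, then stimulated with nigericin for 1 h. Supernatant IL-1β was quantified by MSD electrochemiluminescence. IC50 was derived from IL-1β concentration, with duplicate wells per compound.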
SMILES,IC50 [1],IC50 [2]
"Cc1oc(S(=O)(=O)NC(=O)Nc2c3c(c(F)c4c2CCC4)CCC3)cc1CN1CCC[C@H]1CO [Example 44, (S)-N-((8-fluoro-1,2,3,5,6,7-hexahydro-s-indacen-4-yl)carbamoyl)-4-((2-(hydroxymethyl)pyrrolidin-1-yl)methyl)-5-methylfuran-2-sulfonamide]",5 to 50 nM,5 to 50 nM
"N=S(=O)(NC(=O)Nc1c2c(cc3c1CCC3)CCC2)c1cc(CN2CC(O)C2)co1 (stereo not shown) [Example 1, N-((1,2,3,5,6,7-hexahydro-s-indacen-4-yl)carbamoyl)-4-((3-hydroxyazetidin-1-yl)methyl)furan-2-sulfonimidamide]",< 5 nM,5 to 50 nM
